Assay results taken from PubChem BioAssay (NCI).
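Following 48 hours of exposure in 96-well plates, responses at five concentrations were used to interpolate endpoints linearly. The concentration for full growth arrest is given as TGI.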 *1 amine or outer side, *2 acyl side, *3 side chain or, on linkers, in order; H or OH if unused. Where a SMILES comes first, the peptide text is derived from it. Bridges are numbered along the chain shown (N, C = ends). [ ]: non-standard residue; d: D form. The star is where a group is joined. X38 = CC[C@H](C)[C@@H](N[*:1])[C@@H](O)CC(=O)[*:2]; NMeY = CN[C@@H](Cc1ccc(O)cc1)C(=O)O; dNMeL = CN[C@H](CC(C)C)C(=O)O; Hiv = CC(C)[C@H](O)C(=O)O; Pyruvoyl = CC(=O)C(=O)*

Columns and labels:
Test in all cases: growth of human tumour cells (NCI), 48 h
HL-60(TB) leukemia = system: HL-60(TB) leukemia
RPMI-8226 leukemia = system: RPMI-8226 leukemia
MCF7 breast = system: MCF7 breast
EKVX NSCLC = system: EKVX NSCLC
SK-MEL-5 melanoma = system: SK-MEL-5 melanoma
HOP-92 NSCLC = system: HOP-92 NSCLC
MALME-3M melanoma = system: MALME-3M melanoma
MOLT-4 leukemia = system: MOLT-4 leukemia
KM12 colon = system: KM12 colon
A549 NSCLC = system: A549 NSCLC
SK-MEL-28 melanoma = system: SK-MEL-28 melanoma
OVCAR-5 ovarian = system: OVCAR-5 ovarian
HOP-62 NSCLC = system: HOP-62 NSCLC
HCC-2998 colon = system: HCC-2998 colon
PC-3 prostate = system: PC-3 prostate
U251 CNS = system: U251 CNS
BT-549 breast = system: BT-549 breast
NCI-H226 lung = system: NCI-H226 lung
SK-MEL-2 melanoma = system: SK-MEL-2 melanoma
SW-620 colon = system: SW-620 colon

Measured: TGI

CC[C@H](C)[C@H]1NC(=O)[C@@H](NC(=O)[C@@H](CC(C)C)N(C)C(=O)[C@@H]2CCCN2C(=O)C(C)=O)[C@@H](C)OC(=O)[C@H](Cc2ccc(OC)cc2)N(C)C(=O)[C@@H]2CCCN2C(=O)[C@H](CC(C)C)NC(=O)[C@H](C(C)C)OC(=O)C[C@@H]1O (Pyruvoyl-P[dNMeL]T[X38][Hiv]LP[NMeY](Me); ester 3-C)
0.0331 µM: NCI-H226 lung
0.0599 µM: MCF7 breast
0.0102 µM: SK-MEL-5 melanoma
0.0103 µM: EKVX NSCLC
0.0728 µM: HOP-62 NSCLC
0.261 µM: PC-3 prostate
0.0465 µM: RPMI-8226 leukemia
0.154 µM: U251 CNS
0.151 µM: KM12 colon
0.167 µM: OVCAR-5 ovarian
0.0181 µM: BT-549 breast
0.00658 µM: HCC-2998 colon
0.543 µM: SK-MEL-28 melanoma
0.0255 µM: SK-MEL-2 melanoma
0.107 µM: MALME-3M melanoma
0.374 µM: HOP-92 NSCLC
0.0373 µM: MOLT-4 leukemia
0.187 µM: HL-60(TB) leukemia
0.0618 µM: A549 NSCLC

c1csc(-c2cscc2-c2ccsc2)c1
> 100 µM: RPMI-8226 leukemia | EKVX NSCLC | SW-620 colon | SK-MEL-5 melanoma | HOP-92 NSCLC | MOLT-4 leukemia | A549 NSCLC | SK-MEL-28 melanoma | OVCAR-5 ovarian | HOP-62 NSCLC | U251 CNS | BT-549 breast | SK-MEL-2 melanoma
> 77.9 µM: PC-3 prostate
> 83.5 µM: MCF7 breast
95 µM: MALME-3M melanoma
> 78.9 µM: NCI-H226 lung
> 89.6 µM: HCC-2998 colon
> 85.6 µM: KM12 colon
> 93.8 µM: HL-60(TB) leukemia

Cc1nc2sc(CCl)nn2c(=O)c1Cl
28.7 µM: OVCAR-5 ovarian
25.6 µM: SW-620 colon
15.6 µM: BT-549 breast
25.1 µM: PC-3 prostate
32.1 µM: HOP-62 NSCLC
27.3 µM: SK-MEL-28 melanoma
19.2 µM: U251 CNS
29.8 µM: HL-60(TB) leukemia
26.7 µM: MOLT-4 leukemia
31.8 µM: NCI-H226 lung
27.7 µM: EKVX NSCLC | SK-MEL-2 melanoma
25.2 µM: KM12 colon
37.7 µM: HCC-2998 colon
18.7 µM: SK-MEL-5 melanoma | HOP-92 NSCLC
24.4 µM: RPMI-8226 leukemia
24.9 µM: MALME-3M melanoma
29.6 µM: A549 NSCLC
18.1 µM: MCF7 breast

COc1ccc(/C=C(\Cl)c2ccc(OC)c(OC)c2)cc1OC
> 100 µM: HL-60(TB) leukemia | RPMI-8226 leukemia | MCF7 breast | EKVX NSCLC | SW-620 colon | SK-MEL-5 melanoma | HOP-92 NSCLC | MALME-3M melanoma | MOLT-4 leukemia | KM12 colon | A549 NSCLC | SK-MEL-28 melanoma | OVCAR-5 ovarian | HOP-62 NSCLC | HCC-2998 colon | PC-3 prostate | U251 CNS | BT-549 breast | NCI-H226 lung | SK-MEL-2 melanoma

Cc1nn2c(=O)c([N+](=O)[O-])c(/C=C/c3ccccc3)nc2s1
11 µM: KM12 colon
43.1 µM: HCC-2998 colon
> 100 µM: HOP-92 NSCLC | OVCAR-5 ovarian | PC-3 prostate
5.61 µM: HL-60(TB) leukemia
> 79.1 µM: A549 NSCLC
7.86 µM: BT-549 breast
> 72 µM: HOP-62 NSCLC
20.8 µM: MOLT-4 leukemia
> 29.8 µM: EKVX NSCLC
> 51.4 µM: SW-620 colon
8.86 µM: MCF7 breast
6.84 µM: RPMI-8226 leukemia
11.2 µM: SK-MEL-5 melanoma
21.1 µM: NCI-H226 lung
7.99 µM: U251 CNS
12.4 µM: SK-MEL-2 melanoma
64.2 µM: SK-MEL-28 melanoma
> 71.7 µM: MALME-3M melanoma

O=c1c2cc(S(=O)(=O)Nc3ccccc3Cl)ccc2ncn1NS(=O)(=O)c1ccc(Br)cc1
> 37.5 µM: HL-60(TB) leukemia | RPMI-8226 leukemia | MCF7 breast | EKVX NSCLC | SW-620 colon | HOP-92 NSCLC | MALME-3M melanoma | MOLT-4 leukemia | KM12 colon | A549 NSCLC | SK-MEL-28 melanoma | OVCAR-5 ovarian | HOP-62 NSCLC | HCC-2998 colon | PC-3 prostate | U251 CNS | BT-549 breast | NCI-H226 lung | SK-MEL-2 melanoma

Clc1cccc(Cl)c1C=NC12CC3CC(CC(C3)C1)C2
> 10 µM: HL-60(TB) leukemia | RPMI-8226 leukemia | MCF7 breast | EKVX NSCLC | SW-620 colon | SK-MEL-5 melanoma | HOP-92 NSCLC | MALME-3M melanoma | MOLT-4 leukemia | KM12 colon | A549 NSCLC | SK-MEL-28 melanoma | OVCAR-5 ovarian | HOP-62 NSCLC | HCC-2998 colon | PC-3 prostate | U251 CNS | BT-549 breast | NCI-H226 lung | SK-MEL-2 melanoma

O=C1NC(N2CCOCC2)=N/C1=C\c1cccs1
> 100 µM: HL-60(TB) leukemia | RPMI-8226 leukemia | MCF7 breast | EKVX NSCLC | SW-620 colon | SK-MEL-5 melanoma | HOP-92 NSCLC | MALME-3M melanoma | MOLT-4 leukemia | KM12 colon | A549 NSCLC | SK-MEL-28 melanoma | OVCAR-5 ovarian | HOP-62 NSCLC | HCC-2998 colon | PC-3 prostate | U251 CNS | BT-549 breast | NCI-H226 lung | SK-MEL-2 melanoma

COc1ccc(C2c3cc4c(cc3C(O)C3CCC(=O)N23)OCO4)cc1 (stereo not drawn)
> 100 µM: HL-60(TB) leukemia | RPMI-8226 leukemia | MCF7 breast | EKVX NSCLC | SW-620 colon | SK-MEL-5 melanoma | HOP-92 NSCLC | MALME-3M melanoma | MOLT-4 leukemia | KM12 colon | A549 NSCLC | SK-MEL-28 melanoma | OVCAR-5 ovarian | HOP-62 NSCLC | HCC-2998 colon | PC-3 prostate | U251 CNS | BT-549 breast | NCI-H226 lung | SK-MEL-2 melanoma

NC(=O)c1cc2ccccc2oc1=Nc1ccccc1
> 100 µM: HL-60(TB) leukemia | RPMI-8226 leukemia | MCF7 breast | EKVX NSCLC | SW-620 colon | SK-MEL-5 melanoma | HOP-92 NSCLC | MALME-3M melanoma | MOLT-4 leukemia | KM12 colon | A549 NSCLC | SK-MEL-28 melanoma | OVCAR-5 ovarian | HOP-62 NSCLC | HCC-2998 colon | PC-3 prostate | U251 CNS | BT-549 breast | NCI-H226 lung | SK-MEL-2 melanoma

COc1ccc(Br)c2c1CC(C(=O)O)CC2 (stereo not drawn)
> 100 µM: HL-60(TB) leukemia | RPMI-8226 leukemia | MCF7 breast | EKVX NSCLC | SW-620 colon | SK-MEL-5 melanoma | HOP-92 NSCLC | MALME-3M melanoma | MOLT-4 leukemia | KM12 colon | A549 NSCLC | SK-MEL-28 melanoma | OVCAR-5 ovarian | HOP-62 NSCLC | HCC-2998 colon | PC-3 prostate | U251 CNS | BT-549 breast | NCI-H226 lung | SK-MEL-2 melanoma

CC1(C)C(=O)N(O)C(C)(C)N1O
> 10 µM: HL-60(TB) leukemia | RPMI-8226 leukemia | MCF7 breast | EKVX NSCLC | SW-620 colon | SK-MEL-5 melanoma | HOP-92 NSCLC | MALME-3M melanoma | MOLT-4 leukemia | KM12 colon | A549 NSCLC | SK-MEL-28 melanoma | OVCAR-5 ovarian | HOP-62 NSCLC | HCC-2998 colon | PC-3 prostate | U251 CNS | BT-549 breast | NCI-H226 lung | SK-MEL-2 melanoma

Fc1cc(C2=C[C@H](c3ccc(Cl)cc3)NC(=S)N2)c(Cl)cc1Cl
56.2 µM: RPMI-8226 leukemia
79.8 µM: HCC-2998 colon
> 100 µM: MCF7 breast | EKVX NSCLC | SW-620 colon | HOP-92 NSCLC | MALME-3M melanoma | MOLT-4 leukemia | KM12 colon | A549 NSCLC | SK-MEL-28 melanoma | OVCAR-5 ovarian | HOP-62 NSCLC | PC-3 prostate | U251 CNS | BT-549 breast | NCI-H226 lung
96.2 µM: SK-MEL-2 melanoma
65.7 µM: HL-60(TB) leukemia
36.1 µM: SK-MEL-5 melanoma

C/C(=N\N)C(CN(C)C)C(c1ccccc1)c1c(O)c2ccccc2oc1=O (stereo not drawn)
> 100 µM: HL-60(TB) leukemia | RPMI-8226 leukemia | MCF7 breast | EKVX NSCLC | SW-620 colon | SK-MEL-5 melanoma | HOP-92 NSCLC | MALME-3M melanoma | MOLT-4 leukemia | KM12 colon | A549 NSCLC | SK-MEL-28 melanoma | OVCAR-5 ovarian | HOP-62 NSCLC | HCC-2998 colon | PC-3 prostate | U251 CNS | BT-549 breast | NCI-H226 lung | SK-MEL-2 melanoma

O=S1(=O)c2cnccc2NC(=NCc2cccc3ccccc23)N1c1ccccc1
> 100 µM: MCF7 breast | EKVX NSCLC | SW-620 colon | SK-MEL-5 melanoma | HOP-92 NSCLC | MALME-3M melanoma | MOLT-4 leukemia | KM12 colon | A549 NSCLC | SK-MEL-28 melanoma | OVCAR-5 ovarian | HOP-62 NSCLC | HCC-2998 colon | U251 CNS | BT-549 breast | NCI-H226 lung
> 53.7 µM: HL-60(TB) leukemia
> 76.6 µM: RPMI-8226 leukemia
> 30.5 µM: SK-MEL-2 melanoma
> 81.8 µM: PC-3 prostate

Cc1c2ccncc2cc2c1sc1ccncc12
15.5 µM: EKVX NSCLC
17.6 µM: BT-549 breast
19.7 µM: OVCAR-5 ovarian
17.1 µM: KM12 colon
15.4 µM: HCC-2998 colon
8.37 µM: HOP-62 NSCLC
3.56 µM: MCF7 breast
14.7 µM: U251 CNS
15 µM: MALME-3M melanoma
16.7 µM: SW-620 colon
5.18 µM: NCI-H226 lung
5.78 µM: SK-MEL-5 melanoma
2.45 µM: MOLT-4 leukemia
14.1 µM: SK-MEL-28 melanoma
17.8 µM: SK-MEL-2 melanoma
5.3 µM: A549 NSCLC
7.49 µM: RPMI-8226 leukemia
46.9 µM: HOP-92 NSCLC
6.79 µM: HL-60(TB) leukemia
10.5 µM: PC-3 prostate
